The results in this text go back to ChEMBL document CHEMBL1201862, “PubChem BioAssay data set” (2004).

Among the test systems are 786-0; A549; DU-145; EKVX; HL-60; Hs-578T; IGROV-1; KM12; LOX IMVI; MCF7; NCI/ADR-RES; OVCAR-5; RXF 393; SK-MEL-5; SK-OV-3; SNB-19; SR; T47D; UACC-62; SK-MEL-2.
Holding throughout (assay): NCI anticancer screen, dose series, 48 h

Structures are written as SMILES.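 Tested at 5 concentrations; 48 h exposure; 96-well plates; endpoints linearly interpolated, else capped at highest concentration. Abbreviation: GI50, concentration required for 50% inhibition of growth.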 The source made the active and inactive calls. Rule as the data show it: active = GI50 up to about 1.1 µM and inactive = higher.

On to `CCOC(=O)c1sc2c(c1OC(=O)c1cccs1)c(=O)n(-c1ccccc1)c(=S)n2-c1ccccc1`, for which the GI50 in the test with 786-0 is 10.6 µM (inactive); in the test on A549 it was 12.3 µM (inactive); in the test with DU-145, 20.5 µM (inactive); in the test on EKVX it was 36.9 µM (inactive); with HL-60 it was 15.5 µM (inactive); in the test with Hs-578T it was 23.7 µM (inactive). The GI50 was 12.2 µM (inactive) in the test on IGROV-1; 16.1 µM (inactive) in the test with KM12; 15.7 µM (inactive) with LOX IMVI; 14.9 µM (inactive) in the test with MCF7; 11.1 µM (inactive) with NCI/ADR-RES; 22.6 µM (inactive) with OVCAR-5. The GI50 is 24.3 µM (inactive) in the test with RXF 393; 13.5 µM (inactive) in the test with SK-MEL-5; 18.2 µM (inactive) in the test on SK-OV-3; 28.6 µM (inactive) with SNB-19; 0.0151 µM (active) in the test on SR; 23.5 µM (inactive) with T47D. Further, in the test with UACC-62, the GI50 was 15.3 µM (inactive).

For the compound `CCOC(=O)CCc1c(C)nc2c(C)c3c([nH]c4ccc(Cl)cc43)c(C)c2c1O`, the GI50 in the test on 786-0 is 6.37 µM (inactive); in the test with A549, 4.51 µM (inactive); in the test with DU-145, 25.5 µM (inactive); with EKVX, 10.2 µM (inactive); in the test with HL-60, 4.94 µM (inactive); in the test on Hs-578T, 17.6 µM (inactive). Moreover, the GI50 with IGROV-1 was 10.2 µM (inactive); in the test on KM12, 11.7 µM (inactive); with LOX IMVI, 10.9 µM (inactive); in the test on MCF7, 7 µM (inactive); in the test with NCI/ADR-RES it was 17.3 µM (inactive); with OVCAR-5 it was 0.843 µM (active). Moreover, the GI50 is 2.96 µM (inactive) in the test with RXF 393; 1.45 µM (inactive) with SK-MEL-2; 6.12 µM (inactive) in the test with SK-MEL-5; 9.59 µM (inactive) with SNB-19; 6.55 µM (inactive) in the test with SR; 14.8 µM (inactive) with T47D.

Regarding `CSC1=N/C(=C\c2ccc(C)cc2)C(=O)N1`, the GI50 was 45.8 µM (inactive) with 786-0; > 100 µM (inactive) in the test with A549; > 100 µM (inactive) in the test with DU-145; 52.8 µM (inactive) in the test on EKVX; 54.8 µM (inactive) with HL-60; 32.6 µM (inactive) in the test with Hs-578T. The GI50 in the test with IGROV-1 is > 100 µM (inactive); in the test on KM12, > 100 µM (inactive); with LOX IMVI it was 57.3 µM (inactive); with MCF7, 50.8 µM (inactive); with NCI/ADR-RES, > 100 µM (inactive); in the test on OVCAR-5, > 100 µM (inactive). For the same compound, the GI50 was 26.4 µM (inactive) in the test with RXF 393; > 100 µM (inactive) in the test on SK-MEL-2; > 100 µM (inactive) in the test on SK-OV-3; 58.7 µM (inactive) with SNB-19; > 100 µM (inactive) with SR; 25.2 µM (inactive) in the test on T47D. Besides, the GI50 with UACC-62 is 89.3 µM (inactive).

Consider `CCOC(=O)c1cc2cc(Cc3ccc4[nH]c(C(=O)OCC)cc4c3)ccc2[nH]1`, for which the GI50 is 2.86 µM (inactive) in the test with 786-0; 31.3 µM (inactive) with DU-145; 21.5 µM (inactive) with EKVX; 9.35 µM (inactive) in the test on HL-60; 12.6 µM (inactive) with Hs-578T; 15.4 µM (inactive) with IGROV-1. Also, the GI50 with KM12 is 23.7 µM (inactive); in the test on LOX IMVI it was 38.7 µM (inactive); with MCF7, 52.4 µM (inactive); with NCI/ADR-RES it was 13.4 µM (inactive); in the test on OVCAR-5, > 100 µM (inactive); in the test with RXF 393 it was 9.18 µM (inactive). Also, the GI50 was 26.7 µM (inactive) in the test on SK-MEL-2; 13.6 µM (inactive) in the test with SK-OV-3; 13 µM (inactive) with SNB-19; 41.3 µM (inactive) in the test on SR; 32.4 µM (inactive) in the test with T47D; 13.6 µM (inactive) with UACC-62.
